Assay results published in ChEMBL document CHEMBL1137842, “Fluorinated dihydroquinolines as potent n-NOS inhibitors” (Bioorg Med Chem Lett, 2004).

What was measured:
Nitric oxide synthase 1 = Nitric oxide synthase 1 (Homo sapiens, UniProt P29475); assay: Inhibition of human neuronal nitric oxide synthase
Nitric oxide synthase 3 = molecular target: T1, Nitric oxide synthase 3 (Homo sapiens, UniProt P29474); assay: Inhibition of human endothelial nitric oxide synthase
T1 sequence (P29474 whole entry): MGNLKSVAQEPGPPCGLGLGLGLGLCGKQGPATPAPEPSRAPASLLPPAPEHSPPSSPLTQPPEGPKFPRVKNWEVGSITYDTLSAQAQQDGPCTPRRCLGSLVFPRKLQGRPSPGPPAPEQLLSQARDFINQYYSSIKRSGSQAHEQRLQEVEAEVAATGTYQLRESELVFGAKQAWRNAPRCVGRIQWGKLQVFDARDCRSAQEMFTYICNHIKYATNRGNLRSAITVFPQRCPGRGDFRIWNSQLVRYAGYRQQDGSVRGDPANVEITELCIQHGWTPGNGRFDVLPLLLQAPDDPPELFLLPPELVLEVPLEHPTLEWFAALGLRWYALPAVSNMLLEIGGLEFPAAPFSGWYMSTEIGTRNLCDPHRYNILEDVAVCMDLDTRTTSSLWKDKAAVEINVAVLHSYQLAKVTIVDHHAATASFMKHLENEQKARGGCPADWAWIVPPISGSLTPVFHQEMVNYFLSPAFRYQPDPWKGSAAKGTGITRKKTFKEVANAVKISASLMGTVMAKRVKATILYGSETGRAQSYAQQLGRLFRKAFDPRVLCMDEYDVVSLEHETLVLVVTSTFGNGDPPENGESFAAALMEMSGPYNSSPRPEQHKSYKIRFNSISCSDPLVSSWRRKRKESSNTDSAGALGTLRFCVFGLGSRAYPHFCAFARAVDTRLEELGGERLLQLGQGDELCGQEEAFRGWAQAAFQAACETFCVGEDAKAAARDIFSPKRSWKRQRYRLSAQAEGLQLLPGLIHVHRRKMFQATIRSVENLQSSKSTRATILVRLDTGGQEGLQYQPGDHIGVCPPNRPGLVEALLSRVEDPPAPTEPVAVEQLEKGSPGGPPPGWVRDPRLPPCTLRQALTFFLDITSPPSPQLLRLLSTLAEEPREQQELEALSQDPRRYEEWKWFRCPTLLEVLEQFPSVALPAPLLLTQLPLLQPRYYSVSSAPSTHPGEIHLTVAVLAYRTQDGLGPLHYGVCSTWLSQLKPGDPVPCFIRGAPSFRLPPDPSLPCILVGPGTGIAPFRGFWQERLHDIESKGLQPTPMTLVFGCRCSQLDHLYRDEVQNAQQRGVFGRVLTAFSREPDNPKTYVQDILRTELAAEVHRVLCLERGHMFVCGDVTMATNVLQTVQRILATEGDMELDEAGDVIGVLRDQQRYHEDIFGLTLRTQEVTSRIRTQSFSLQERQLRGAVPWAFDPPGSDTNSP

[1] = molecular target: Nitric oxide synthase, inducible (Homo sapiens, UniProt P35228); assay: Inhibition of human inducible nitric oxide synthase
Nitric oxide synthase, inducible, sequence (P35228 whole entry): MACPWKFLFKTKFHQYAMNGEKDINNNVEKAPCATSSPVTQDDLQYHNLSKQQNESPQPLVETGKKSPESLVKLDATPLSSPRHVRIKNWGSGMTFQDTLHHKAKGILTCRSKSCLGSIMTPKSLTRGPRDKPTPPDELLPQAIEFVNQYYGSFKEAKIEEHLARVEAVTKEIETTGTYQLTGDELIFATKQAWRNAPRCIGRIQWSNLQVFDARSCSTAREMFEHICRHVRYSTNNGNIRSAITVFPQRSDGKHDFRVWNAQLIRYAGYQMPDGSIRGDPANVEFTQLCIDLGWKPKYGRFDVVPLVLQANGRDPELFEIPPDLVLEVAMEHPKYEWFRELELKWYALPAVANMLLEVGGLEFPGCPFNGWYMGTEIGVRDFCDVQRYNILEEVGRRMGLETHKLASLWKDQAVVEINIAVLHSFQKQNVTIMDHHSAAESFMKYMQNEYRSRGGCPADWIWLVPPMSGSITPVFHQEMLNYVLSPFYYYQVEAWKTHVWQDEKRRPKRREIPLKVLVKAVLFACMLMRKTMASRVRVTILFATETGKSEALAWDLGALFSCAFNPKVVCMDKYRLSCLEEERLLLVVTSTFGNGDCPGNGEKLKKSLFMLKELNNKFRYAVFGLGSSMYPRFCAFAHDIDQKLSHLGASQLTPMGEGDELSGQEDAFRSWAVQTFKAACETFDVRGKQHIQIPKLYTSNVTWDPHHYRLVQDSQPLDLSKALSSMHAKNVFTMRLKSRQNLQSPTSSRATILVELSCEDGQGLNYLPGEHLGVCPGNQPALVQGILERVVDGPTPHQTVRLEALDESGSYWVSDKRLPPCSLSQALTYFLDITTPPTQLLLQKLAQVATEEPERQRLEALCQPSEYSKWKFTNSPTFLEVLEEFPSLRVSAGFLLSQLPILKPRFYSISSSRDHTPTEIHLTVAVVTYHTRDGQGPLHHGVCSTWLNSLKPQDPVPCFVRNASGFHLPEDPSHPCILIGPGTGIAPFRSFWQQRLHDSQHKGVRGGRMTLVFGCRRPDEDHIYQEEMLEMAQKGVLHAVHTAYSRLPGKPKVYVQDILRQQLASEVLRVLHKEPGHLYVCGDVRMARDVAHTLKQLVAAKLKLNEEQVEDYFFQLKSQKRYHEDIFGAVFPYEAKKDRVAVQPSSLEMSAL

[2] = pKa value by photometric titration; assay type: physicochemical

Nitric oxide synthase 1, sequence (P29475 whole entry): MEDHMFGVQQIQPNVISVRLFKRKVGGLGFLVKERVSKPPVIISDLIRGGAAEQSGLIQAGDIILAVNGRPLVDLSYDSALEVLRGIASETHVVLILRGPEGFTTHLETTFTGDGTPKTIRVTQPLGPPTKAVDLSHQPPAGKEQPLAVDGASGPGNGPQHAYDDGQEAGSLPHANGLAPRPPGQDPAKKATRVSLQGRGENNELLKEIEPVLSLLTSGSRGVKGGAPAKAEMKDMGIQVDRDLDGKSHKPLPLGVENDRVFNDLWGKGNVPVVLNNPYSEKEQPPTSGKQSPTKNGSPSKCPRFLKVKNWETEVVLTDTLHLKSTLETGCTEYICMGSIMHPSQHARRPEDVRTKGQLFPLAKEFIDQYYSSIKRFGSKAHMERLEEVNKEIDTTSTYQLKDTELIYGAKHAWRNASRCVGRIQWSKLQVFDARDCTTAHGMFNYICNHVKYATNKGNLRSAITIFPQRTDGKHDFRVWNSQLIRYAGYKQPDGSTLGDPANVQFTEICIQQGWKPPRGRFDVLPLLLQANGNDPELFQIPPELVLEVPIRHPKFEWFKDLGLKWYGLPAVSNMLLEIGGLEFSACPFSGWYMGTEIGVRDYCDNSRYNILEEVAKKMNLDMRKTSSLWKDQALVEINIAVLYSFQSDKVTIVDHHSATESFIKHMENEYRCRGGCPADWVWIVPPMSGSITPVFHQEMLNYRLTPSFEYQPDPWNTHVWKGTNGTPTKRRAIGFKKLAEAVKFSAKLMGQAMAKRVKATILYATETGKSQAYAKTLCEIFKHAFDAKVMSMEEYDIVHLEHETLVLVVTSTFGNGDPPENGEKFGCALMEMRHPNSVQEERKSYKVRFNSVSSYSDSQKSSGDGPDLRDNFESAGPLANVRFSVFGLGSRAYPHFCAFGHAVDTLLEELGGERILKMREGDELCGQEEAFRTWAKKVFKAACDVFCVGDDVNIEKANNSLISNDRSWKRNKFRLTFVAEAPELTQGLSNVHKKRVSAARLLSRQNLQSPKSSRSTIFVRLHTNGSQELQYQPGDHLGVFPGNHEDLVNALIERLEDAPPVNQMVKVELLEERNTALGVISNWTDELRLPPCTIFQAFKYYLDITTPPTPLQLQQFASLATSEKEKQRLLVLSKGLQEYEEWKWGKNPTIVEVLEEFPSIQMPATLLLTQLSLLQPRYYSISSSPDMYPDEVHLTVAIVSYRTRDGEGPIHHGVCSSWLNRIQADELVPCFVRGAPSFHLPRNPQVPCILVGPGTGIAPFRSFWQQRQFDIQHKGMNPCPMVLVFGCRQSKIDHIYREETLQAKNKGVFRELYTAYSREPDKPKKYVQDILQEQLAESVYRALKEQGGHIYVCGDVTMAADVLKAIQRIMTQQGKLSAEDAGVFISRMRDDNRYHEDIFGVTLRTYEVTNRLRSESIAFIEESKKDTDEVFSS

Row | SMILES | IC50 (Nitric oxide synthase 1) [nM] | IC50 (Nitric oxide synthase 3) [nM] | IC50 [1] [nM] | pKa [2]
1 | NC1=Nc2cc(CCCNCc3cccc(Cl)c3)ccc2[C@H]2CCC[C@@]12F | 310 | 38000 | 2200 | 8
2 | CNCCc1ccc2c(c1)N=C(N)[C@]1(F)CCC[C@H]21 | 390 | 79000 | 1900 | 7.9
3 | NC1=Nc2cc(CCCNCc3cccc(Cl)c3)ccc2[C@H]2CCC[C@@H]12 | – | – | – | 9.9
4 | NC1=Nc2ccc(Cl)cc2[C@H]2CCC[C@@]12F | 290 | 14000 | 8100 | 7.6
5 | NC1=Nc2ccc(Cl)cc2[C@H]2CCC[C@@H]12 | – | – | – | 9.4
6 | NC1=Nc2c(F)cc(Cl)cc2[C@H]2CCC[C@@H]12 | 290 | 14000 | 8100 | 8.2
7 | NC1=Nc2c(F)cccc2[C@H]2CCC[C@@H]12 | – | – | – | 8.5
8 | NC1=Nc2ccccc2[C@H]2CCC[C@@]12F | 100 | 2700 | 2100 | 7.9
9 | NC1=Nc2c(F)cccc2[C@H]2CCC[C@@]12F | 590 | 22000 | 25000 | 6.6
10 | CNCc1ccc2c(c1)N=C(N)[C@]1(F)CCC[C@H]21 | 660 | 66000 | 1400 | –
11 | NC1=Nc2ccccc2[C@H]2CCC[C@@H]12 | – | – | – | 9.7
12 | NC1=Nc2c(ccc(F)c2F)[C@H]2CCC[C@@H]12 | – | – | – | 8
